Where two headings read alike, the source gives them in different places. Marks after values point to notes of the source that are not given here. Where a SMILES comes first, the peptide text is derived from it. [ ]: non-standard residue; d: D form. dPhe(4-NH2) = Nc1ccc(C[C@@H](N)C(=O)O)cc1; dPhe(4-Cl) = N[C@H](Cc1ccc(Cl)cc1)C(=O)O; Phe(4-NH2) = Nc1ccc(C[C@H](N)C(=O)O)cc1; d2Nal = N[C@H](Cc1ccc2ccccc2c1)C(=O)O; Lys(iPr) = CC(C)NCCCC[C@H](N)C(=O)O; d3Pal = N[C@H](Cc1cccnc1)C(=O)O
Key:
[1] = cited from earlier work
[2] = Serum DHT pharmacokinetics after single oral doses of testosterone or testosterone enanthate in oil with and without dutasteride (Example 2); conditions: 200, 400, 800 mg; all men
Experimental: Study Design: Participants were randomly assigned to one of two groups: 1) oral testosterone in sesame oil, or 2) oral testosterone enanthate in sesame oil (Delatestryl, BTG Pharmaceuticals, Iselin, N.J.) at a concentration of 200 mg/ml. A sample size of seven subjects per group was estimated to have an 80% power with an α of 0.05 to detect a 50% in the change in serum testosterone area-under-the curve between doses. The oral testosterone enanthate in sesame oil was manufactured by the compounding pharmacy at the University of Washington. Briefly, micronized testosterone (U.S.P. grade, Spectrum Quality Projects, Gardena, Calif., USA) was suspended at 100 mg/ml in sesame oil (N.F. grade, Spectrum Quality Projects, Gardena, Calif., USA), and mixed thoroughly on a magnetic stir plate to create a homogenous testosterone enanthate/sesame oil emulsion. […]
Total serum testosterone was measured by a radioimmunoassay (Diagnostic Products Corporation, Los Angeles, Calif.). […] The normal range was 8.7–33 nmol/L. DHT was measured using an RIA Kit (Diagnostic Systems Laboratory, Los Angeles, Calif.). […] The normal range was 3.2–47 nmol/L. The normal ranges for testosterone, DHT and SHBG were determined in our laboratory using serum samples obtained from 100 normal men aged 20–50 years.
Statistics: Hormone were log transformed prior to analysis. […] Changes between groups were analyzed by ANOVA. […]

[3] = Serum testosterone pharmacokinetics after single oral doses of testosterone or testosterone enanthate in oil with and without dutasteride (Example 2); conditions: for maximum concentration of testosterone versus normal range: normal range 8.7–33 nmol/L; for serum testosterone after oral administration in oil: 200, 400, 800 mg, all men; for Testosterone AUC (area under-the-curve): serum testosterone, mean ± SD
Experimental: Study Design: Participants were randomly assigned to one of two groups: 1) oral testosterone in sesame oil, or 2) oral testosterone enanthate in sesame oil (Delatestryl, BTG Pharmaceuticals, Iselin, N.J.) at a concentration of 200 mg/ml. A sample size of seven subjects per group was estimated to have an 80% power with an α of 0.05 to detect a 50% in the change in serum testosterone area-under-the curve between doses. The oral testosterone enanthate in sesame oil was manufactured by the compounding pharmacy at the University of Washington. Briefly, micronized testosterone (U.S.P. grade, Spectrum Quality Projects, Gardena, Calif., USA) was suspended at 100 mg/ml in sesame oil (N.F. grade, Spectrum Quality Projects, Gardena, Calif., USA), and mixed thoroughly on a magnetic stir plate to create a homogenous testosterone enanthate/sesame oil emulsion. The compounding pharmacist then drew up the emulsion into syringes at the desired dose levels (200, 400 and 800 mg). The dose of oral testosterone enanthate in sesame oil was normalized for the testosterone content, so that the subjects in the testosterone enanthate group (molecular weight 397) were administered 276, 554 and 1108 mg of testosterone enanthate, corresponding to 200, 400 and 800 mg of testosterone.
(§1) The drug exposure period lasted 12 days (FIG. 6). […] One, two and three days after acyline administration, as per the protocol of FIG. 6, subjects drank 200, 400 or 800 mg of testosterone or testosterone enthanate in oil, mixed with 8 oz of whole milk. These doses were repeated days eight, nine and ten days after the acyline injection. […] For safety, subjects underwent daily testing of liver function (AST, bilirubin, alkaline phosphatase), kidney function (BUN, creatinine) and hematopoiesis (hemoglobin and hematocrit).
(§2) Total serum testosterone was measured by a radioimmunoassay (Diagnostic Products Corporation, Los Angeles, Calif.). […] The normal range was 8.7–33 nmol/L. DHT was measured using an RIA Kit (Diagnostic Systems Laboratory, Los Angeles, Calif.). The sensitivity of this assay was 0.043 nmol/L and the intra-assay variation for mid and low-range pools was 9.9% and 11%, with interassay coefficients of variations of 19 and 25%. […] The normal range was 3.2–47 nmol/L. The normal ranges for testosterone, DHT and SHBG were determined in our laboratory using serum samples obtained from 100 normal men aged 20–50 years.
Statistics: Hormone were log transformed prior to analysis. […] Changes between groups were analyzed by ANOVA. Statistical analyses were performed using STATA ([…], Tex., USA). Type I error was set at 0.05 for all analyses.

[4] = men receiving testosterone by intramuscular administration; cited from earlier work
5-α-reductase = conditions: cited from earlier work
[5] = in vivo; cited from earlier work
[6] = test system: serum proteins (SHBG, albumin); conditions: cited from earlier work
[7] = set-up: species or system human; conditions: in vivo
Source text: The drug exposure period lasted 12 days (FIG. 6).

[8] = test system: endogenous testosterone production; conditions: cited from earlier work
[9] = test system: endogenous testosterone production; experiment: Suppression of endogenous testosterone production by GnRH antagonist acyline; format: in vivo, human
Experimental: as §1, §2

In the case of `CCCCCCCCCCC(=O)O[C@H]1CC[C@H]2[C@@H]3CCC4=CC(=O)CC[C@]4(C)[C@H]3CC[C@]12C` [Testosterone undecanoate], the “effect of food intake on absorption” value ([1]; oral (Bagchus et al.)) is listed as “dramatically improved”, the “serum DHT on oral TU therapy” value ([1]; oral) is listed as “well above the normal range” and the “serum testosterone on oral TU therapy” value ([1]; oral) is listed as “therapeutic increases”.

For `CCCCCCC(=O)O[C@H]1CC[C@H]2[C@@H]3CCC4=CC(=O)CC[C@]4(C)[C@H]3CC[C@]12C` [Testosterone Enanthate-only, testosterone enanthate], the “serum DHT after oral administration in oil” value [2] was “significantly increased the serum DHT in all men in a dose-dependent fashion”, the “maximum concentration of testosterone versus normal range” value ([3]; 400 mg oral dose in oil) was “exceeding the normal range” and the “maximum concentration of testosterone versus normal range” value ([3]; 800 mg oral dose in oil) was “exceeding the normal range”. The “serum testosterone after oral administration in oil” value [3] was “significantly increased in all men in a dose-dependent fashion”.

In the case of `CC(C)(C)NC(=O)[C@H]1CC[C@H]2[C@@H]3CC[C@H]4NC(=O)C=C[C@]4(C)[C@H]3CC[C@]12C` [finasteride, (5α,17beta)-N-(1,1-dimethylethyl)-3-oxo-4-azaandrost-1-ene-17-carboxamide], the “levels of serum testosterone” value [4] is given as “without substantial effect”, the “reduction of prostate DHT levels” value (5-α-reductase; administration of finasteride) is given as 90% and the “reduction of serum DHT levels” value (5-α-reductase; administration of finasteride) is given as 70%. For the same compound, the “increase of testosterone levels” value (5-α-reductase; men given finasteride (Gormley et al.)) was “about 10%”.

In the case of `C[C@]12CC[C@H]3[C@@H](CCC4=CC(=O)CC[C@@]43C)[C@@H]1CC[C@@H]2O` [Testosterone-only, testosterone], the “half-life of testosterone, reported values” [5] is listed as 10 to 100 min, the “serum DHT after oral administration in oil” value [2] is listed as “significantly increased the serum DHT in all men in a dose-dependent fashion” and the “blood testosterone bound to serum proteins” value [6] is listed as “About 98%”. The “circulating plasma testosterone bound to sex hormone-binding globulin (SHBG)” value [6] was “Approximately 40%”, the “circulating plasma testosterone unbound (free)” value ([6]; plasma) was 2% and the “maximum concentration of testosterone versus normal range” value ([3]; 800 mg oral dose in oil) was “exceeding the normal range”. The “serum testosterone after oral administration in oil” value [3] was “significantly increased in all men in a dose-dependent fashion”, the “Testosterone AUC (area under-the-curve)” value ([3]; single oral dose 200 mg in oil) was 124 ± 28 nmol·h/L and the “Testosterone AUC (area under-the-curve)” value ([3]; single oral dose 200 mg in oil, listed as testosterone-alone) was 124 ± 28 nmol·h/L. For the same compound, the “Testosterone AUC (area under-the-curve)” value ([3]; single oral dose 400 mg in oil) was 208 ± 74^a nmol-hours/L, the “Testosterone AUC (area under-the-curve)” value ([3]; single oral dose 400 mg in oil, listed as testosterone-alone) was 208 ± 74 nmol·h/L and the “Testosterone AUC (area under-the-curve)” value ([3]; single oral dose 800 mg in oil) was 328 ± 72^a nmol-hours/L. The “Testosterone AUC (area under-the-curve)” value ([3]; single oral dose 800 mg in oil, listed as testosterone-alone) was 328 ± 82 nmol·h/L, the “effect on serum testosterone levels” value ([1]; 200 mg doses of oral testosterone, for up to eight hours) was “elevate serum testosterone levels to the low normal range” and the “effect on serum testosterone levels” value ([1]; oral unmodified testosterone at doses up to 100 mg, deficient men) was “little effect”.

For `CC(=O)Nc1ccc(C[C@H](NC(=O)[C@H](CO)NC(=O)[C@@H](Cc2cccnc2)NC(=O)[C@@H](Cc2ccc(Cl)cc2)NC(=O)[C@@H](Cc2ccc3ccccc3c2)NC(C)=O)C(=O)N[C@H](Cc2ccc(NC(C)=O)cc2)C(=O)N[C@@H](CC(C)C)C(=O)N[C@@H](CCCCNC(C)C)C(=O)N2CCC[C@H]2C(=O)N[C@H](C)C(N)=O)cc1` [acyline] (Ac-[d2Nal][dPhe(4-Cl)][d3Pal]S[Phe(4-NH2)](Ac)[dPhe(4-NH2)](Ac)L[Lys(iPr)]P[dA]-NH2), the injection-site reaction [7] is listed as “transient pruritis”, the “duration of suppression of endogenous testosterone production in men” value ([8]; previously shown (Herbst et al.)) is listed as 2 weeks and the “duration of suppression of testosterone production in normal men” value ([8]; single injection 300 mcg/kg SQ) is listed as no less than 15 days. The “serum DHT 24 hours after acyline administration (day 1)” value ([9]; all subjects, Day 0 DHT 1.6±0.6, P<0.05) was 0.6 ± 0.2 nmol/L, the “serum testosterone 24 hours after acyline administration (day one)” value ([9]; all subjects, acyline 300 mcg/kg SQ, day zero 20.0±7.4, P<0.0001) was 2.3 ± 0.5 nmol/L and the “serum DHT 24-hours post acyline” value ([9]; testosterone enanthate group) was 0.6 ± 0.2 nmol/L. The “serum testosterone 24-hours post acyline” value ([9]; testosterone enanthate group) was 2.3 ± 0.8 nmol/L, the “serum DHT 24-hours post acyline” value ([9]; testosterone group) was 0.5 ± 0.2 nmol/L and the “serum testosterone 24-hours post acyline” value ([9]; testosterone group) was 2.3 ± 0.7 nmol/L.

Source: patent US7138389B2, “Oral androgen therapy using modulators of testosterone bioavailability” (University of Washington, priority 2004, dated 2006)
